# Laboratory results published in US20220296584A1, “Membrane Active Molecules” (priority 2017, published 2022).
# Where “and” joins values, the source holds several entries; their conditions need not be identical. Equal values may be shown once. Read-outs that look alike come from different tables or passages of the source.
# Assays:
# mouse = assay: Anesthetic effect in mice after subcutaneous or intravenous injection of aqueous solutions; type: in vivo
# Description: Butyric acid was dissolved in water to form an 8 M solution. 0.5 mL of the 8 M solution of butyric acid was injected subcutaneously (at the back of the neck) into the mouse.
# 3-hydroxybutyric acid was dissolved in water to form 1 M, 1.5 M, and 2 M solutions. 0.2 mL of a 1.5 M solution of 3-hydroxybutyric acid was injected into a tail vein of a CD-1 mouse. […] This was repeated for at least 2 more times on subsequent days.
# Ethylmalonic acid was dissolved in water to form 2 M, 3 M, and 4 M solutions. 0.2 mL of a 3 M solution of ethylmalonic acid was injected into a tail vein of a mouse. […] This was repeated for at least 2 more times on subsequent days.
# Ethylmalonic acid was dissolved in water to form a 4 M solution. 0.5 mL of the 4 M solution of ethylmalonic acid was injected subcutaneously into the mouse.
# CF-1 mice = assay: Anticonvulsant test: intravenous metrazol (pentylenetetrazol) infusion, time to twitch and seizure; type: in vivo; conditions: individual CF-1 mouse (Entry)
# Description: CF-1 mice were used in this study. Number 20 PE tubing to cannulate a mouse tail vein was used. An infusion pump was used to deliver a solution at a rate of 0.34 mL/min. A hemostat was used to prevent backflow in the PE tubing before the experiment stated. To begin the experiment, the hemostat that was clamped to the PE 20 tubing was removed, the infusion of the solution was started into the tail IV of the mouse, and the timer was started.
# The study reflects the time in seconds from the start of the infusion to the time of twitch and onset of seizure, or 90 seconds, whichever is sooner. When the seizure occurs, the infusion is turned off.
# As a control, metrazol (pentylenetetrazol) in a 0.5% solution (5 mg/mL) in water was prepared. Pentylenetetrazol is used as a control to study seizure phenomena in and to identify compounds that may control seizure susceptibility. Solutions of 8 M butyric acid and 1.5 M 3-hydroxybutyric acid were made.
# The time to twitch and time to seizure of the mouse in seconds is recorded in Tables 3-5, below.
# Tadpoles = assay: Tadpole movement suppression (anesthetic efficacy); type: in vivo
# Description: Tadpoles were placed in a petri dish containing aquarium water. Four to eight tadpoles were placed in each petri dish. The aquarium water contained the specified test compound at the listed concentration. When the tadpoles stopped moving, a plastic rod was used to elicit motion once again by contact between the rod and tadpole. […] From this and the number of subjects, the percent of tadpoles in which movement was suppressed were calculated.
# After 1 to 30 minutes, they were again contacted with a rod to ensure the anesthetic effect had worn off
# In some examples, subanesthetic concentrations of ethanol were added into the aquarium water. Tadpoles in which movement was prevented with exposure to a test compound and ethanol but not with exposure to a test compound alone were classified as partial anesthetics.
# mice = conditions: intravenously; for Observed effect on the animals: 62.5 mM solution in intralipid
# [1] = 1.5 M 3-hydroxybutyric acid solution plus metrazol
# [2] = 8 M butyric acid solution plus metrazol
# [3] = 0.5% metrazol tail vein infusion 0.34 mL/min
compound,measurement,setting,value
CC(O)CC(=O)O (stereo not drawn) [3-hydroxybutyric acid],Observed effect on the mouse,"mouse; 0.2 mL of 1.5 M solution in water, tail vein, CD-1 mouse",became unconscious or anesthetic
same,Observed effect on the mouse,"mouse; 1 M solution in water, tail vein, CD-1 mouse",did not have any observable effect
same,Lethality,"mouse; 2 M solution in water, tail vein, CD-1 mouse",lethal
same,3-Hydroxybutyric Acid and Metrazol Time to Seizures,CF-1 mice; [1],74 seconds and 53 seconds (3×) and 48 seconds (2×) and 65 seconds and 61 seconds
same,3-Hydroxybutyric Acid and Metrazol Time to Twitch,CF-1 mice; [1],54 s and 49 s and 47 s and 38 s and 50 s and 45 s and 41 s and 56 s
CCCC(=O)O [Butyric acid],Lethality,"mouse; 0.2 mL of 8 M solution in water, intravenously through mouse tail vein",lethal
same,Time until mouse woke up,"mouse; 0.5 mL of 8 M solution in water, subcutaneously (back of the neck), mouse",several hours later
same,Butyric Acid and Metrazol Time to Seizures,CF-1 mice; [2],51 seconds and 50 seconds (2×) and 47 seconds and 57 seconds (3×) and 42 seconds and 66 seconds and 41 seconds and 44 seconds and 38 seconds and 65 seconds
same,Butyric Acid and Metrazol Time to Twitch,CF-1 mice; [2],38 seconds and 42 seconds and 44 seconds and 50 seconds and 34 seconds (2×) and 53 seconds (2×) and 48 seconds and 36 seconds (2×) and 35 seconds (2×)
same,Movement suppressed (%),Tadpoles; Concentration (mM): 62.5,100%
same,Movement suppressed (%),Tadpoles; Concentration (mM): 125,100%
same,Movement suppressed (%),Tadpoles; Concentration (mM): 250,100%
same,Movement suppressed (%),Tadpoles; Concentration (mM): 500,100%
"CCC(C(=O)O)C(=O)O [Ethyl Malonic Acid, 2-Ethylmalonic acid]",Observed effect on the mouse,"mouse; 0.2 mL of 3 M solution in water, tail vein, mouse",became unconscious
same,Observed effect on the mouse,"mouse; 0.5 mL of 4 M solution in water, subcutaneously, mouse","became sedated, anesthetized, or lose consciousness"
same,Observed effect on the mouse,"mouse; 2 M solution in water, tail vein, mouse",did not have any observable effect
same,Lethality,"mouse; 4 M solution in water, tail vein, mouse",lethal
same,Movement suppressed (%),Tadpoles; Concentration (mM): 16,0%
same,Movement suppressed (%),Tadpoles; Concentration (mM): 62.5,0%
same,Movement suppressed (%),Tadpoles; Concentration (mM): 125,100%
same,Movement suppressed (%),Tadpoles; Concentration (mM): 250,100%
"C1CCc2nnnn2CC1 [Metrazol, pentylenetetrazol, reference compound]",Metrazol alone Time to Seizures,CF-1 mice; [3],43 seconds (2×) and 42 seconds (2×) and 59 seconds and 45 seconds and 39 seconds and 49 seconds (2×)
same,Metrazol alone Time to Twitch,CF-1 mice; [3],34 seconds (2×) and 33 seconds and 36 seconds (2×) and 37 seconds and 52 seconds and 31 seconds and 43 seconds
CCOC(=O)[C@@H](O)c1ccccc1 [ethyl (S)-(+)-mandelate],Observed effect on the animals,mice,lethargic and those loss coordination
same,Lethality,mice; 250 mM solution in intralipid,lethal
same,Lethality,mice; 1M solution in intralipid,lethal
CCCC(=O)OCC [ethyl butyrate],Observed effect on the animals,mice,lethargic and those loss coordination
same,Lethality,mice; 250 mM solution in intralipid,lethal
same,Lethality,mice; 1M solution in intralipid,lethal
ethyl isovaleric acid,Observed effect on the animals,mice,lethargic and those loss coordination
